Measured values: ChEMBL document CHEMBL3600310 (J Med Chem, 2015)

How the values were obtained:
MDA-MB-435 = assay: Cytotoxicity against human MDA-MB-435 cells after 72 hrs by MTT assay; type: functional, cell-based; conditions: MDA-MB-435, 72 h
A549 = assay: Cytotoxicity against human A549 cells after 72 hrs by MTT assay; type: functional, cell-based; conditions: A549, 72 h
Mus musculus = assay: Toxicity in human A549 cells xenografted BALB/C mouse assessed as change in body weight at 0.5 mg/kg, ip for 5 days; type: organism-based; conditions: in vivo, 120 h
HCT-116 = assay: Cytotoxicity against human HCT116 cells after 72 hrs by MTT assay; type: functional, cell-based; conditions: HCT-116, 72 h

CC[C@@]1(O)C(=O)OCc2c1cc1n(c2=O)Cc2cc3c(CN(C)C)c(O)ccc3nc2-1 [TOPOTECAN] was tested, and the IC50 (MDA-MB-435) was 400 nM, the IC50 (A549) was 7400 nM and the Activity (Mus musculus) was “Toxic”. It also gave an IC50 (HCT-116) of 700 nM.
